Data taken from publication PMC7280082 (Acta Pharmaceutica Sinica. B, 2019).

What was measured:
WT HIV-1 (IIIB) = experiment: microbe, parasite or virus in culture; type: cell-based; conditions: for EC50: Human immunodeficiency virus 1, IIIB, MT4, read-out: EC50 IIIB; for SI IIIB: ratio of CC50/EC50
HIV-2 strain (ROD) = experiment: Anti-HIV-2; type: cell-based; conditions: for EC50: Human immunodeficiency virus 2, MT4, read-out: EC50 ROD; for SI ROD: ratio of CC50/EC50
[1] = tested on: HIV-1 L100I mutant strain; experiment: microbe, parasite or virus in culture; type: cell-based; conditions: for SI L100I: CC50/EC50; for EC50: Human immunodeficiency virus 1, MT4, read-out: EC50 L100I; for RF L100I: ratio of EC50 (resistant viral strain)/EC50 (wild-type viral strain)
[2] = tested on: HIV-1 K103N mutant strain; experiment: microbe, parasite or virus in culture; type: cell-based; conditions: for SI K103N: CC50/EC50; for EC50: Human immunodeficiency virus 1, MT4, read-out: EC50 K103N; for RF K103N: ratio of EC50 (resistant viral strain)/EC50 (wild-type viral strain)
[3] = tested on: HIV-1 Y181C mutant strain; experiment: microbe, parasite or virus in culture; type: cell-based; conditions: for SI Y181C: CC50/EC50; for EC50: Human immunodeficiency virus 1, MT4, read-out: EC50 Y181C; for RF Y181C: ratio of EC50 (resistant viral strain)/EC50 (wild-type viral strain)
[4] = tested on: HIV-1 Y188L mutant strain; experiment: microbe, parasite or virus in culture; type: cell-based; conditions: for SI Y188L: CC50/EC50; for EC50: Human immunodeficiency virus 1, MT4, read-out: EC50 Y188L; for RF Y188L: ratio of EC50 (resistant viral strain)/EC50 (wild-type viral strain)
[5] = tested on: HIV-1 E138K mutant strain; experiment: microbe, parasite or virus in culture; type: cell-based; conditions: for SI E138K: CC50/EC50; for EC50: Human immunodeficiency virus 1, MT4, read-out: EC50 E138K; for RF E138K: ratio of EC50 (resistant viral strain)/EC50 (wild-type viral strain)
[6] = tested on: HIV-1 F227L + V106A double-mutant strain; experiment: microbe, parasite or virus in culture; type: cell-based; conditions: for SI F227L + V106A: CC50/EC50; for EC50: Human immunodeficiency virus 1, MT4, read-out: EC50 F227L + V106A; for RF F227L + V106A: ratio of EC50 (resistant viral strain)/EC50 (wild-type viral strain)
[7] = tested on: HIV-1 RES056 (K103N + Y181C) double-mutant strain; experiment: microbe, parasite or virus in culture; type: cell-based; conditions: for SI RES056: CC50/EC50; for EC50: Human immunodeficiency virus 1, MT4, read-out: EC50 RES056; for RF RES056: ratio of EC50 (resistant viral strain)/EC50 (wild-type viral strain)
WT HIV-1 RT = WT HIV-1 RT (Human immunodeficiency virus type 1 group M subtype B, UniProt P03366); experiment: Recombinant HIV-1 RT inhibitory assay; type: biochemical
[8] = Cytotoxicity in mock-infected MT-4 cell cultures, MTT method; conditions: human, mock-infected MT-4 cells

Row | SMILES | EC50 (WT HIV-1 (IIIB)) | SI IIIB (WT HIV-1 (IIIB)) | EC50 (HIV-2 strain (ROD)) | SI ROD (HIV-2 strain (ROD)) | SI L100I [1] | EC50 [1] | RF L100I [1] | SI K103N [2] | EC50 [2] | RF K103N [2] | SI Y181C [3] | EC50 [3] | RF Y181C [3] | SI Y188L [4] | EC50 [4] | RF Y188L [4] | SI E138K [5] | EC50 [5] | RF E138K [5] | SI F227L + V106A [6] | also measured
1 | Cc1cc(-c2ccc(N(C)C)cc2)cc(C)c1Oc1nc(NC2CCN(Cc3ccc(S(N)(=O)=O)cc3)CC2)nc2ccsc12 [Compound 29, 4-((4-((4-((4'-(Dimethylamino)-3,5-dimethyl-[1,1′-biphenyl]-4-yl)oxy)thieno[3,2-d]pyrimidin-2-yl)amino)piperidin-1-yl)methyl)benzenesulfonamide] | 79.2 ± 48.7 nM | 232 | > 18400 nM | <1 | 74 | 247 ± 4.5 nM | 3.1 | 189 | 97.2 ± 3.07 nM | 1.2 | 71 | 260 ± 30.2 nM | 3.3 | 68 | 269 ± 30 nM | 3.4 | 100 | 183 ± 19.4 nM | 2.3 | 131 | EC50 [6]: 140 ± 1.31 nM; RF F227L + V106A [6]: 1.8; SI RES056 [7]: 11; EC50 [7]: 1680 ± 388 nM; RF RES056 [7]: 21.2; IC50 (WT HIV-1 RT): 477 ± 9 nM; CC50 at 5 days [8]: 18300 ± 4500 nM
2 | Cc1cc(-c2ccccc2)cc(C)c1Oc1nc(NC2CCN(Cc3ccc(S(N)(=O)=O)cc3)CC2)nc2ccsc12 [Compound 19, 4-((4-((4-((3,5-Dimethyl-[1,1′-biphenyl]-4-yl)oxy)thieno[3,2-d]pyrimidin-2-yl)amino)piperidin-1-yl)methyl)benzenesulfonamide] | 43.8 ± 15.6 nM | 487 | 6140 ± 272 nM | 3 | 62 | 344 ± 117 nM | 7.9 | 356 | 59.9 ± 6.01 nM | 1.4 | 127 | 167 ± 24.5 nM | 3.8 | 176 | 121 ± 9.19 nM | 2.8 | 200 | 107 ± 18.8 nM | 2.4 | 106 | EC50 [6]: 200 ± 10.4 nM; RF F227L + V106A [6]: 4.6; SI RES056 [7]: 12; EC50 [7]: 1710 ± 473 nM; RF RES056 [7]: 39.1; IC50 (WT HIV-1 RT): 164 ± 5 nM; CC50 at 5 days [8]: 21300 ± 1260 nM
3 | Cc1cc(-c2cccs2)cc(C)c1Oc1nc(NC2CCN(Cc3ccc(S(N)(=O)=O)cc3)CC2)nc2ccsc12 [Compound 15, 4-((4-((4-(2,6-Dimethyl-4-(thiophen-2-yl)phenoxy)thieno[3,2-d]pyrimidin-2-yl)amino)piperidin-1-yl)methyl)benzenesulfonamide] | 49.5 ± 14.8 nM | 435 | 5110 ± 1710 nM | 4 | 220 | 97.9 ± 62.4 nM | 2.0 | 932 | 23.1 ± 2.56 nM | 0.5 | 235 | 91.7 ± 18.2 nM | 1.9 | 203 | 106 ± 43.6 nM | 2.1 | 173 | 124 ± 88.7 nM | 2.5 | 380 | EC50 [6]: 56.7 ± 16.2 nM; RF F227L + V106A [6]: 1.1; SI RES056 [7]: 22; EC50 [7]: 999 ± 151 nM; RF RES056 [7]: 20.2; IC50 (WT HIV-1 RT): 227 ± 46 nM; CC50 at 5 days [8]: 21500 ± 890 nM
4 | Cc1cc(-c2ccc(N(C)C)cc2)cc(C)c1Oc1nc(NC2CCN(Cc3ccc(C(N)=O)cc3)CC2)nc2ccsc12 [Compound 30, 4-((4-((4-((4'-(Dimethylamino)-3,5-dimethyl-[1,1′-biphenyl]-4-yl)oxy)thieno[3,2-d]pyrimidin-2-yl)amino)piperidin-1-yl)methyl)benzamide] | 176 ± 26.4 nM | 134 | > 23500 nM | <1 | 21 | 1120 ± 543 nM | 6.3 | 135 | 173 ± 46.3 nM | 1.0 | 40 | 585 ± 33.3 nM | 3.3 | 42 | 556 ± 57.4 nM | 3.2 | 96 | 245 ± 173 nM | 1.4 | 19 | EC50 [6]: 1250 ± 804 nM; RF F227L + V106A [6]: 7.1; SI RES056 [7]: < 1; EC50 [7]: > 23500 nM; RF RES056 [7]: > 133; IC50 (WT HIV-1 RT): 473 ± 59 nM; CC50 at 5 days [8]: 23500 ± 380 nM
